Molecule `O=[N+]([O-])c1cccc(-c2coc3ccccc23)c1` has a melting point of 86 to 86.5 °C.
`COc1ccc2[nH]c(-c3nc(C)no3)cc2c1` gave a melting point of 141 to 142 °C.
In the case of `C#CCON=Cc1cc(Cl)ccc1OC(=O)NC`, the melting point was 97 to 100 °C.
`Cn1nc2nnsc2c1C(N)=O` gave a melting point of 183 to 184 °C.
With `Cc1cccc(SSc2cccc(C)c2C(=O)Nc2ccc(S(N)(=O)=O)cc2)c1C(=O)Nc1ccc(S(N)(=O)=O)cc1` the melting point was 273 to 275 °C.
Molecule `O=C(O)CCCCCCCn1c(-c2ccc(O)cc2)nc(-c2ccccc2)c1-c1ccccc1` has a melting point of 167 °C.
With `COc1cccn2c(=O)c(CCN3CCC(c4noc5cc(F)ccc45)CC3)c(C)nc12` the melting point was 209 °C.
Work on `CCC(CNC(=O)c1cc(C#N)c(Cl)cc1OC)NC(C)C` (centres undefined) yielded a melting point of 103 to 105 °C.
`OCc1nc2ccc(OC(F)(F)F)cc2[nH]1` showed a melting point of 192 to 194 °C.
`N=C(Nc1ccccc1)N1CCC1` gave a melting point of 116 to 119 °C.
For `O=C(O)c1ccc(-c2nc(-c3ccc(C(F)(F)F)cc3)co2)cc1`, the melting point was 258 to 259 °C.
Work on `O=C(O)C(=O)c1ccc(S(=O)CCOc2ccc3ccccc3c2)cc1` (centres undefined) yielded a melting point of 157 to 158 °C.
`CC(C)(C)c1cc(C(=O)O)cc(I)c1O` showed a melting point of 178 °C.
Molecule `CCC(C)n1cc(Cl)nc(N2CCc3cc(OC)cc(Br)c32)c1=O` (centres undefined) has a melting point of 155 to 157 °C.
For `Cn1c([N+](=O)[O-])cnc1C1=NO[C@@H]2CCCCCCCCCC[C@@H]12` (relative stereo), the melting point was 121 to 122 °C.
In the case of `O=C(O)CC[C@@H](Cc1cn(Cc2ccccc2)c2ccccc12)NC(=O)CCCCCCc1ccccc1`, the melting point was 130 to 132 °C.
For `CCOC(=O)c1cc2cccc(O)c2[nH]1`, the melting point was 197 to 199 °C.
In the case of `O=C1Nc2cc(Cl)ccc2C(=O)C1c1ccsc1` (centres undefined), the melting point was 341 to 344 °C.
Molecule `CN(Cc1ccc(NC(=O)C2=Cc3cc(-c4ccc5c(c4)CCC(C)(C)O5)ccc3S(=O)(=O)CC2)cc1)C1CCOCC1` has a melting point of 222 to 226 °C.
With `COc1cccc(OC)c1C(N)=O` the melting point was 208 to 209 °C.
Work on `CC(C)Nc1ccc([N+](=O)[O-])cc1C(=O)c1ccccc1` yielded a melting point of 155 °C.
`CN(C)C(=O)c1ccc(CN(C)C(=O)C23CC4CC(CC(C4)C2)C3)s1` gave a melting point of 145 to 146 °C.
`Cc1cc(N2CCN(CCc3ccccc3)C2=O)sc1C(=O)NCc1cccnc1` showed a melting point of 95 to 97 °C.
In the case of `CCCc1cc(F)c2oc(Cc3ccc(OC)cc3)c(C)c2c1OC(C)=O`, the melting point was 85 to 88 °C.
Molecule `CCON=C(CC)C1=C(OC(=O)c2ccccc2)CC(c2c(OC)cc(OC)cc2OC)CC1=O` (centres undefined) has a melting point of 139 °C.
In the case of `COC(=O)C1C(=O)CC(=O)CC1C` (centres undefined), the melting point was 122 to 123 °C.
`O=C(O)C1=Cc2cc(Cl)ccc2OC1C(F)(F)F` (centres undefined) gave a melting point of 181 to 184 °C.
Molecule `COCCOC(=O)c1cc(-c2c(C(F)(F)F)nc(OC)[nH]c2=O)c(F)cc1Cl` has a melting point of 63 to 65 °C.
For `N#Cc1cc(O)cc(OCCc2ccccn2)c1N`, the melting point was 149 to 150 °C.
`COc1cc(OC)c2c(=O)c3oc4ccc(OC)cc4c3oc2c1` showed a melting point of 262 to 264 °C.
For `CCCCCCCCCCCC#Cc1ccccc1C=C(C(=O)OCC)P(=O)(O)O`, the melting point was 68 to 69 °C.
Work on `Cc1ccc(-c2ccccc2C(=O)NCCC#N)cc1` yielded a melting point of 102 to 104 °C.
In the case of `Cc1cc(Cl)ccc1C(=O)NN(CCF)CCF`, the melting point was 85 to 87 °C.
With `CNC(=O)c1cccc2cccc(NC(=O)c3cccs3)c12` the melting point was 210 °C.
Molecule `CC(C)Oc1ccc(C=C2CCn3c2nc2cc(NC(=O)C(=O)O)ccc2c3=O)cc1` has a melting point of 225 to 229 °C.
Molecule `CC(C)N1CCC(N2CCN(CCN3CCCCC3)C2=C(C#N)C#N)CC1` has a melting point of 93 to 95 °C.
In the case of `NC(=O)c1ccc(CCCOCCCCCCBr)cc1`, the melting point was 79 to 82 °C.
Molecule `Cc1nc2ncc(C(=O)NCc3ccc(Cl)cc3)c(O)c2cc1I` has a melting point of 276 to 277 °C.
With `COc1ccc(C(=O)O)c(C(=O)O)c1` the melting point was 168 to 174 °C.
Work on `COc1cccc(OC(=O)/C=C/c2ccc(C(C)(C)C)cc2)c1` yielded a melting point of 83 °C.
Work on `CC1(CSc2ccccc2)COC2(CCCCC2)OO1` (centres undefined) yielded a melting point of 45 to 46 °C.
`CCOC(=O)C1CN(C)c2nc(Cl)ncc2C1=O` (centres undefined) showed a melting point of 175 °C.
With `O=c1c(-c2cccs2)nc2ccccc2n1CC1CCCO1` (centres undefined) the melting point was 123 °C.
Molecule `CNc1nc(N(C2CC(C)(C)N(O)C(C)(C)C2)C2CC(C)(C)N(O)C(C)(C)C2)nc(N(C2CC(C)(C)N(O)C(C)(C)C2)C2CC(C)(C)N(O)C(C)(C)C2)n1` has a melting point of 254 to 257 °C.
`NC(=NC(=O)c1nc(Cl)c(N)nc1N)NCCCCCCCCCCCC(=O)O` gave a melting point of 194 to 196 °C.
For `CC(=O)CC(=O)c1ccc2c3c(cccc13)CC2`, the melting point was 59 °C.
Work on `COc1c(C)cc(Cc2ccc3c(c2)OCO3)cc1C` yielded a melting point of 49 °C.
Work on `BrCCCCCCCOc1nc(-c2ccccc2)c(-c2ccccc2)n1-c1ccccc1` yielded a melting point of 97 to 99 °C.
With `CC(C)(O)Cc1cc(O)ccc1Br` the melting point was 139 to 141 °C.
Work on `CCOC(NC(=O)c1cccc(OC)c1)C(N)=O` (centres undefined) yielded a melting point of 143 to 144 °C.
With `O=C(O)c1nn(-c2ccccc2)c2c1CCc1cc(Cl)ccc1-2` the melting point was 282 °C.
In the case of `O=C1CC2CCc3cc(O)ccc3C2=NN1c1ccccn1` (centres undefined), the melting point was 193 to 194 °C.
`C=C1C(=O)N(CC(=O)O)C(=O)N1Cc1cccc([N+](=O)[O-])c1` showed a melting point of 169 to 171 °C.
Work on `COc1ccc(-c2c(Cl)c(CN3C(=O)COC3=O)nc3sc4c(c23)CCC(C(=O)O)C4)cc1` (centres undefined) yielded a melting point of 218 to 219 °C.
`CC(C)CC(=Cc1ccccc1)C(=O)O` gave a melting point of 66 to 67.5 °C.
With `CC(=O)N(C(=NC1CCCCC1)ON=C(C)C)C1CCCCC1` the melting point was 74 to 78 °C.
In the case of `CCCCCn1c(C)c(C(=O)c2ccc(Br)c3ccccc23)c2cccc(OC)c21`, the melting point was 114 °C.
`O=C(O)c1cccc(-c2cccc(OCc3ccc(Cl)cc3Cl)n2)c1` gave a melting point of 186 to 187 °C.
With `COc1ccc(C=C2CCc3cc(OCCn4ccnc4)ccc3C2=O)cc1` the melting point was 132 to 133 °C.
Molecule `COC(=O)CC(Cc1c[nH]c2ccccc12)(NC(=O)OC1C2CC3CC(C2)CC1C3)C(=O)O` (centres undefined) has a melting point of 108 to 109 °C.
Molecule `CC(C)c1onc(-c2c(Cl)cccc2Cl)c1COc1ccc(N(C)Cc2ccc(C(=O)O)cc2)c(C(F)(F)F)n1` has a melting point of 96.1 to 97.1 °C.
`CN(CC(=O)O)c1ccc(C#N)cc1` gave a melting point of 64.5 °C.
Molecule `CCOC(=O)Cc1c(C(=O)OCC)c(CC)cn1C` has a melting point of 65 to 67 °C.
`O=C(NCCO)c1cccc(-c2ccc3[nH]cc(-c4ccc(Cl)cc4Cl)c3c2)c1` showed a melting point of 140 to 141 °C.
In the case of `COC(=O)C(CCBr)Oc1cc([N+](=O)[O-])cc2c1CCCC2` (centres undefined), the melting point was 99 to 100 °C.
`CC(=Cc1cccc(SC(F)(F)F)c1)[N+](=O)[O-]` gave a melting point of 48 °C.
In the case of `CN(C)C(=O)C1=NN(c2ccccc2)C(C(N)=O)=NN1c1ccccc1`, the melting point was 243 to 244 °C.
`CC(N1C(=O)C(=O)N(c2ccc(Br)cc2)C1=S)C(C)(C)C` (centres undefined) showed a melting point of 207 to 208 °C.
In the case of `CN1C(=O)C(C(=O)Nc2ccc(Cl)c(Cl)c2)S(=O)(=O)c2cc(Cl)ccc21` (centres undefined), the melting point was 176 to 178 °C.
Work on `CC(C)NC(=O)NC(=O)c1ccnc([N+](=O)[O-])c1` yielded a melting point of 132 to 133 °C.
Work on `CN(C)CCC(C(=O)O)c1cccc2ccccc12` (centres undefined) yielded a melting point of 130 to 135 °C.
Molecule `COc1cccc(C=C2NC(=O)N(C)C2=O)c1` has a melting point of 203 to 205 °C.
In the case of `CC(=O)C(=Cc1cc(O)c(O)c([N+](=O)[O-])c1)c1ccc(C)cc1`, the melting point was 189 to 194 °C.
`O=C1c2ccc(Cl)cc2C(=O)C(O)(O)C1(O)O` showed a melting point of 134 to 136 °C.
Work on `CC(=O)OC1CCC2(C)C3=CCC4(C)C(C(C)=O)CCC4C3CCC2C1` (centres undefined) yielded a melting point of 163 to 165 °C.
In the case of `COC(=O)C1CCC2C3CCC4CC(O)C(O)CC4(C)C3C(NCCC(C)C)CC12C` (centres undefined), the melting point was 159 to 161 °C.
`Cc1ncn(Nc2cccc(Cl)c2)c1-c1ccccc1` showed a melting point of 218 °C.
Work on `Cc1ccc2c(c1)NC(=O)C(NC(=O)Nc1cccc(Cl)c1)CC2C1CCCCC1` (centres undefined) yielded a melting point of 162 to 169 °C.
With `CCOC(=O)c1[nH]c(SCC)nc1C(C)(C)O` the melting point was 82 to 85 °C.
`O=C1CC[C@@H](CO)N1Cc1ccccc1` showed a melting point of 82 to 84 °C.
Work on `COc1ccccc1-c1ccn(C(C)C(=O)N(C)C)n1` (centres undefined) yielded a melting point of 92 to 94 °C.
`C#CC(C)OC(=O)c1cccc2ccccc12` (centres undefined) showed a melting point of 66 to 68 °C.
Molecule `CS(=O)(=O)N1CC2(COc3cc4c(cc32)OCO4)c2ccccc21` (centres undefined) has a melting point of 215 to 217 °C.
`COc1ccc2[nH]c(-c3ccccc3N)cc2c1` gave a melting point of 198 to 200 °C.
Work on `O=c1ccoc2cc(OCCCNCC3COc4ccc(O)cc4O3)ccc12` (centres undefined) yielded a melting point of 186 to 189 °C.
Work on `O=C(O)C(Cc1ccccc1)Oc1ccc2cc(-c3cnc(Cc4ccccc4)o3)ccc2c1` (centres undefined) yielded a melting point of 78 to 82 °C.
For `NC(=O)c1ccccc1C(=O)N(C[C@H]1CN(c2ccc(N3CCOCC3=O)cc2)C(=O)O1)C[C@H]1CN(c2ccc(N3CCOCC3=O)cc2)C(=O)O1`, the melting point was 204 °C.
`COC(=O)CCCC#Cc1cc(F)cc(C(F)(F)F)c1` gave a melting point of 44 to 45 °C.
`Oc1cnc(C(F)(F)F)nc1` showed a melting point of 179 to 181 °C.
Molecule `Cc1c([N+](=O)[O-])ccc2[nH]cc(CCCO)c12` has a melting point of 129 to 130 °C.
For `CC(C)=Cn1cnc2c(N)nc3ccccc3c21`, the melting point was 284 to 289 °C.
`c1ccc(N2CCN(Cc3n[nH]c4ccccc34)CC2)cc1` gave a melting point of 196 to 197 °C.
In the case of `COC(=O)c1nsnc1N`, the melting point was 142 to 143 °C.
`O=C(NCCO)c1[nH]c2ccc(Cl)cc2c1S(=O)(=O)c1ccccc1` gave a melting point of 198 to 200 °C.
In the case of `CC(=O)Nc1ccc(-n2nc(CCCCCC(=O)O)c3c2CCC3)cc1`, the melting point was 149 to 150 °C.
For `COc1ccc(-c2nc3ccc(C(=O)O)cc3[nH]2)cc1C12CC3CC(CC(C3)C1)C2`, the melting point was 358 to 359 °C.
Work on `CCCCOc1cc(/C=C(\OCC)C(=O)O)ccc1OCCc1ccc(OS(C)(=O)=O)c(OC)c1` yielded a melting point of 97 °C.
Work on `CC(=O)O[C@H]1[C@H](OC(C)=O)CSC(Oc2ccc3c(ccn3C(=O)OC(C)(C)C)c2)[C@@H]1OC(C)=O` (some centres undefined) yielded a melting point of 58 to 62 °C.
Work on `OC1(C#Cc2ccc(-c3ccc(F)cc3)cc2)CN2CCC1CC2` (centres undefined) yielded a melting point of 232 to 233 °C.
`COC(=O)c1c(C)nc(CC(C)C)c(CN)c1-c1ccc(C)cc1` gave a melting point of 56 to 57 °C.
`Cc1cc2c([C@@H]3C[C@H]3CNC(=O)C3CC3)cccn2n1` (relative stereo) showed a melting point of 124 to 128 °C.
`COc1ccc(CCN)cc1S(N)(=O)=O` showed a melting point of 164 to 167 °C.
Molecule `CCOCc1nc2c(N)nc3ccc(OCc4ccccc4)cc3c2n1CCCCN(C(N)=O)c1ccccc1` has a melting point of 186 to 188 °C.
Molecule `CCC1(CC)CC(=O)c2cc(C#N)ccc2O1` has a melting point of 71 to 72 °C.

Reference: a melting point compilation (Tetko et al.; mined from patent text by program, amines drawn as free bases though some values may be those of a salt)
